Legend:
[1] = system: PD1-ss+10aa/Gaussia Luciferase; assay: Dox-Induced PD1-ss-Gluc Assay; format: cell-based; details: 24 hr Dox induction; 293FRT/TO cells; read-out: 24 hr Dox Inducible PD1ssGluc 293FRT/TO: Mean IC50
Procedure, shortened: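 The cell line was made by transfecting Flp-In 293 T-REx cells with a PD1 signal sequence+10aa–Gaussia luciferase fusion under T-REx control and selecting with hygromycin and blasticidin. Cells were seeded, and next day compound plus doxycycline was added at 37 °C, 5% CO2.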

[2] = Liver Microsome Stability Assay (monkey); details: monkey liver microsomes, with NADPH, 1.0 uM compound
Experimental: (§1) Stability of a compound was assessed in the presence of liver microsomes from various sources—mouse, rat, monkey and human liver microsomes. 1.0 uM compound, 0.4% DMSO in 0.1 M Potassium Phosphate with 1.0 mg/mL liver microsomes, were incubated at 37° C. with or without 1 mM NADPH. The samples were quenched at 0, and 30 minutes.

[3] = Liver Microsome Stability Assay (human); details: human liver microsomes, with NADPH, 1.0 uM compound
Experimental: as §1

[4] = system: IL-2-FL/Gaussia Luciferase; assay: Dox Induced IL2-FL-Gluc Assay; format: cell-based; details: for IC50: 24 hr Dox induction, 293FRT/TO cells, read-out: 24 hr Dox Inducible IL2FLGluc 293FRT/TO: Mean IC50; for 24 hr Dox Inducible IL2FLGluc 293FRT/TO: IL2/PD1: ratio of IL2FLGluc IC50 to PD1ssGluc IC50
Procedure, shortened: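 Compounds in DMSO/medium with doxycycline were applied to a 293 T-REx stable line expressing an IL-2 (aa 1-153)–Gaussia luciferase fusion under tetracycline-regulated control, cells seeded one day earlier; incubation at 37 °C, 5% CO2. Structures drawn without stereochemistry were tested as stereoisomer mixtures.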

[5] = Liver Microsome Stability Assay (rat); details: rat liver microsomes, with NADPH, 1.0 uM compound
Experimental: as §1

[6] = system: HER3-ss+4aa/Gaussia Luciferase; assay: Dox-Induced Her3-ss-Gluc Assay; format: cell-based; details: 24 hr Dox induction; 293FRT/TO cells; read-out: 24 hr Dox Inducible Her3(ss + 4)Gluc 293FRT/TO: Mean IC50
Procedure, shortened: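 Compounds were diluted in DMSO/media containing doxycycline. They were added to Flp-In 293 T-REx cells plated the previous day, then incubated at 37 °C under 5% CO2. These cells stably express, under T-REx control, Gaussia luciferase fused to the HER3 signal sequence plus 4 amino acids.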

[7] = Liver Microsome Stability Assay (mouse); details: mouse liver microsomes, with NADPH, 1.0 uM compound
Experimental: as §1

[8] = system: multiple myeloma cell line NCI-H929; assay: H929 Cell Viability Assay; format: cell-based, human; details: Homo sapiens, NCI-H929, 48 h, NCI-H929 cells, Celltiter-Glo
Procedure, shortened: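 Luminescent CellTiter-Glo read-out of viability after a 48 h exposure (37° C, 5% CO2) of NCI-H929 myeloma cells to compound dilutions in RPMI 1640 plus 10% FBS. Data for structures drawn without stereochemistry refer to stereoisomer mixtures.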

[9] = system: multiple myeloma cell line U266B1; assay: U266 Cell Viability Assay; format: cell-based, human; details: Homo sapiens, U-266, 48 h, U266B1 cells, Celltiter-Glo
Procedure, shortened: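 CellTiter-Glo luminescence was read after a 48 h compound exposure (37 °C, 5% CO2) of human U266B1 myeloma cells grown in 10% FBS-supplemented RPMI 1640. Data for structures shown without defined stereochemistry refer to stereoisomer mixtures.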

[10] = system: TNFα-FL/Gaussia Luciferase; assay: Dox Induced TNFα-FL-Gluc Assay; format: cell-based; details: for IC50: 24 hr Dox induction, 293FRT/TO cells, read-out: 24 hr Dox Inducible TNFaFLGluc 293FRT/TO: Mean IC50; for 24 hr Dox Inducible TNFaFLGluc 293FRT/TO: TNF/PD1: ratio of TNFaFLGluc IC50 to PD1ssGluc IC50
Procedure, shortened: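 Compound was added with doxycycline to cells plated a day earlier, incubating at 37° C under 5% CO2. The reporter line is 293 T-REx expressing a TNFα (1-233)–Gaussia luciferase fusion under tetracycline-regulated control.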

| Structure (SMILES) | IC50 [1] [µM] | Liver Microsome Stability (Multiple Species): Monkey - % Remaining after 30 min w/NADPH [2] [%] | Liver Microsome Stability (Multiple Species): Human - % Remaining after 30 min w/NADPH [3] [%] | IC50 [4] [µM] | 24 hr Dox Inducible IL2FLGluc 293FRT/TO: IL2/PD1 [4] | Liver Microsome Stability (Multiple Species): Rat - % Remaining after 30 min w/NADPH [5] [%] | IC50 [6] [µM] | Liver Microsome Stability (Multiple Species): Mouse - % Remaining after 30 min w/NADPH [7] [%] | EC50 [8] [µM] | EC50 [9] [µM] | IC50 [10] [µM] | 24 hr Dox Inducible TNFaFLGluc 293FRT/TO: TNF/PD1 [10] |
| --- | --- | --- | --- | --- | --- | --- | --- | --- | --- | --- | --- | --- |
| O=C(Nc1nc(/C=C/c2ncoc2C2CCCCC2)cs1)c1cccn1Cc1ccnc(F)c1 [Compound B53, (E)-N-(4-(2-(5-cyclohexyloxazol-4-yl)vinyl)thiazol-2-yl)-1-((2-fluoropyridin-4-yl)methyl)-1H-pyrrole-2-carboxamide] | 0.0381 | 1.39 | 5.98 | 1.67 | 44 | 2.11 | 0.878 | 14.5 | 11.2 | > 25 | 3.84 | 101 |
| O=C(Nc1nc(/C=C/c2cn(C3CCCCC3)cn2)cs1)c1cccn1Cc1ccncc1 [Compound B54, (E)-N-(4-(2-(1-cyclohexyl-1H-imidazol-4-yl)vinyl)thiazol-2-yl)-1-(pyridin-4-ylmethyl)-1H-pyrrole-2-carboxamide] | 0.00685 | 2.69 | 0.4 | 5.52 | 810 | 4.57 | 2.95 | 4.16 | 13.9 | > 23.6 | 9.42 | 1370 |
| O=C(Nc1nc(/C=C/c2cn(C3CCCCC3)cn2)cs1)c1cccn1Cc1ccnc(F)c1 [Compound B55, (E)-N-(4-(2-(1-cyclohexyl-1H-imidazol-4-yl)vinyl)thiazol-2-yl)-1-((2-fluoropyridin-4-yl)methyl)-1H-pyrrole-2-carboxamide] | 0.0253 | 0.4 | 0.41 | 2.01 | 79 | 0.3 | 1.17 | 1.7 | > 20.8 | > 25 | 6.62 | 262 |
| COCCn1cnc(/C=C/c2csc(NC(=O)c3cccn3Cc3ccncc3)n2)c1 [Compound B56, (E)-N-(4-(2-(1-(2-methoxyethyl)-1H-imidazol-4-yl)vinyl)thiazol-2-yl)-1-(pyridin-4-ylmethyl)-1H-pyrrole-2-carboxamide] | 0.52 | 0.27 | 0.46 | > 25 | >48 | 0.57 | > 25 | 1.72 | > 25 | > 25 | > 25 | >48.0 |
| CC(C)n1cncc1/C=C/c1csc(NC(=O)c2cccn2Cc2ccncc2)n1 [Compound B57, (E)-N-(4-(2-(1-isopropyl-1H-imidazol-5-yl)vinyl)thiazol-2-yl)-1-(pyridin-4-ylmethyl)-1H-pyrrole-2-carboxamide] | 2.86 | 2.84 | 17.5 | > 25 | >8.7 | 34.4 | > 25 | 17.3 | 16.3 | > 24.2 | 16.7 | 5.83 |
| Cc1c(/C=C/c2csc(NC(=O)c3cccn3Cc3ccncc3)n2)ncn1C(C)C [Compound B58, (E)-N-(4-(2-(1-isopropyl-5-methyl-1H-imidazol-4-yl)vinyl)thiazol-2-yl)-1-(pyridin-4-ylmethyl)-1H-pyrrole-2-carboxamide] | 0.0244 | 5.89 | 0.28 | > 19.7 | >810 | 1.67 | 12.4 | 2.14 | 15.4 | 18.4 | 2.31 | 952 |
| Cc1cccc(/C=C/c2csc(NC(=O)c3cccn3Cc3ccnc(F)c3)n2)n1 [Compound B59, (E)-1-((2-fluoropyridin-4-yl)methyl)-N-(4-(2-(6-methylpyridin-2-yl)vinyl)thiazol-2-yl)-1H-pyrrole-2-carboxamide] | 0.467 | 0.17 | 0.32 | 6.09 | 13 | 0.55 | 2.1 | 0.64 | 7.91 | 11.9 | 13.9 | 29.7 |
| O=C(Nc1nc(/C=C/c2ccc3c(n2)CCCC3)cs1)c1cccn1Cc1ccnc(F)c1 [Compound B60, (E)-1-((2-fluoropyridin-4-yl)methyl)-N-(4-(2-(5,6,7,8-tetrahydroquinolin-2-yl)vinyl)thiazol-2-yl)-1H-pyrrole-2-carboxamide] | 0.14 | 2.65 | 0.33 | 1.75 | 13 | 1.16 | 0.725 | 0.45 | 12.8 | 15.8 | > 25 | >179 |
